Results: US11287433B2, “Methods for in vitro investigating mitochondrial replication dysfunction in a biological sample, kits and uses thereof, therapeutic methods against progeroid-like syndromes or symptoms and screening method for identifying particular protease inhibitor(s) and/or nitroso-redox stress scavenger …” (INSTITUT PASTEUR, priority 2014, dated 2022)
Peptide text beside a SMILES is read from it. * marks the point of attachment. Cbz = O=C(OCc1ccccc1)*

B1: KSTI: Kunitz soybean trypsin inhibitor, a natural serine protease inhibitor (protein)
chain: DFVLDNEGNPLENGGTYYILSDITAFGGIRAAPTGNERCPLTVVQSRNELDKGIGTIISSPYRIRFIAEGHPLSLKFDSFAVIMLCVGIPTEWSVVEDLPEGPAVKIGENKDAMDGWFRLERVSDDEFNNYKLVFCPQQAEDDKCGDIGISIDHDDGTRRLVVSKNKPLVVQFQKLDKESL

Legend:
[1] = test system: POLG1 levels; test: POLG1 immunofluorescence in patient fibroblasts after treatment with protease inhibitors; format: cell-based, human; conditions: 5 hours
Experimental: (§1) Cells plated on slides were fixed with 2% PFA and permeabilized with 0.5% Triton X-100. The slides were incubated in blocking buffer (BSA 5% in PBS) for 1 h then with the primary antibody (POLγ and HTRA3 purchased from SantaCruz Biotechnology, or as available from any other provider) for 1 h at room temperature. A second, fluorescent antibody (goat anti-mouse and goat anti-rabbit Alexa® Fluor 488, Alexa® Fluor 555, conjugated secondary antibodies from Invitrogen or by any other provider), was incubated for 1-2 h at room temperature, and DNA was stained with 10 μg/ml Hoechst.
(§2) Image analysis was carried out using Perkin-Elmer Ultraview RS Nipkow-spinning disk confocal microscope. Three-dimensional reconstruction of all the z-stacks was achieved using the 3D-volume rendering of IMARIS software (Bitplane). A regular fluorescence microscope can also be used, including for fluorescence quantification, although in this last case it will quantify one section of the cell only and not the entire volume; this quantification may be sufficient for comparative studies (normal versus patient cells). Confocal acquisition (even in the absence of spinning disk) in 3D allows quantification of the entire volume, and differences among samples are therefore more robust.
The inventors treated fibroblasts from healthy individuals, from UV^SS and from Cockayne syndrome of type I and II (the last being the more severe), with protease inhibitors MG132 (5 μM) and KSTI (100 μg/ml) for 5 hours and then tested for POLG1 levels.

[2] = test system: POLG1 levels; test: POLG1 levels in CSB-silenced HeLa cells after protease inhibitors; format: cell-based, human
[3] = test system: adult primary fibroblasts IMR-90 and BJ; test: Cell survival of primary cells in culture at longer incubation times; format: cell-based
Experimental: As KSTI (serine protease inhibitor) and MnTBAP (ROS/RNS scavenger) rescue the CS phenotype by 24 h treatment, the inventors assessed cell survival in culture at longer incubation times with either drug. They used doses of the drugs as those affecting CS cells: 100 μg/ml of KSTI and 100 μM MnTBAP on adult primary fibroblasts IMR-90 and BJ (from ATCC repository). […] Additional experiments are ongoing to test the survival at longer incubation times and lower doses of the drug.

[4] = test system: reactive oxygen species (ROS); test: ROS levels by DCFHDA (DCF) fluorescence in fibroblasts; format: cell-based, human; conditions: control and UVSS fibroblasts; 24 h
From the text: The inventors assessed the relative levels of oxidative stress using the fluorescent probe dichlorofluorescein diacetate (DCFHDA), which prevalently detects reactive oxygen species (ROS)^29. They reported that whereas UV^SS cells display moderate (25%) increase of signal compared to controls, all CS cells are characterized by higher levels (1.6 to 2-fold) of oxidative stress (FIG. 8a), in agreement with a previous finding^30.
(§3) The inventors quantified fluorescence intensities on cells as summarized in Table 1 before and after treatment with MnTBAP (purchased from Millipore) of DCF and of DHR123 per cell (FIGS. 9(a) and (b)), as well as fluorescence intensities of HTRA2 (FIG. 9(c)), HTRA3 (FIG. 9(d)), POLG1 (FIG. 9(e)) per cell.
(§4) Manganase(III)tetrakis(4-benzoic acid)porphyrin (MNTBAP) is a synthetic metalloporphyrin which mimics superoxide dismutase and scavenges ROS and peroxynitrite^32.

[5] = test system: peroxynitrite; test: Peroxynitrite levels by DHR123 fluorescence in fibroblasts; format: cell-based, human; conditions: all control and patient cells; 24 h
From the text: High levels of ROS react with nitric oxide (NO), thereby quenching NO and promoting the formation of peroxynitrite (ONOO^−), which is a powerful oxidant and nitration agent^31.
as §3, §4

[6] = test system: HTRA2; test: HTRA2 fluorescence intensity per cell after MnTBAP; format: cell-based, human
Experimental: as §1
as §2, with “robust. […]” for “robust.”

[7] = test system: HTRA3; test: HTRA3 fluorescence intensity per cell after MnTBAP; format: cell-based, human
Experimental: as §1, §2, §3

[8] = test system: POLG1; test: POLG1 fluorescence intensity per cell after MnTBAP; format: cell-based, human; conditions: normal fibroblasts
Experimental: as §1
as §2, with “robust. […]” for “robust.”

[9] = test system: mtDNA content; test: qPCR of mtDNA content after MnTBAP; format: cell-based, human
[10] = test system: ATP synthesis; test: ATP tests (glycolysis/OXPHOS fraction and total ATP per cell) after MnTBAP; format: cell-based, human
[11] = CS type I and type II fibroblasts 359, 797 and 816, MG132 5 μM or KSTI 100 μg/ml
[12] = CS type I fibroblasts 539 and 548, MG132 5 μM or KSTI 100 μg/ml
[13] = fibroblasts of healthy individuals and of UVSS, MG132 5 μM or KSTI 100 μg/ml

Row | Molecule | POLG1 immunofluorescence level [1, 11] | POLG1 immunofluorescence level [1, 12] | POLG1 immunofluorescence level ([1]; CS type II fibroblasts 177, MG132 5 μM) | POLG1 immunofluorescence level [1, 13] | POLG1 levels [2] | cell survival (cell number and cell shape) ([3]; 100 μM MnTBAP, continuous treatment by 3 days) | levels of ROS, measured by DCFHDA [4] | levels of peroxynitrite, measured by DHR123 [5] | HTRA2 reduction ([6]; UVSS and all CS cells, compared with control cells) | levels of serine protease HTRA2 ([6]; control cells) | levels of HTRA3 ([7]; CS cells) | levels of HTRA3 ([7]; UVSS cells) | levels of HTRA3 ([7]; control cells) | levels of POLG1 [8] | mtDNA content ([9]; control fibroblasts) | mtDNA content ([9]; patient cells) | glycolytic shift / fraction of ATP produced by mitochondria ([10]; CS cells, 24 h treatment) | total ATP levels ([10]; UVSS and CS cells) | cell survival (cell number and cell shape) ([3]; 100 μg/ml KSTI, continuous treatment by 6 days)
1 | CC(C)C[C@@H](C=O)NC(=O)[C@H](CC(C)C)NC(=O)[C@H](CC(C)C)NC(=O)OCc1ccccc1 [MG132, benzyl N-[(2S)-4-methyl-1-[[(2S)-4-methyl-1-[[(2S)-4-methyl-1-oxopentan-2-yl]amino]-1-oxopentan-2-yl]amino]-1-oxopentan-2-yl]carbamate] (Cbz-Leu-Leu-Leu-aldehyde) | POLG1 levels exceeded those of untreated healthy individuals | Significant modifications in two CS type I fibroblasts (539 and 548) were not observed | increased to levels of healthy individual | increased levels of POLG1 immunofluorescence | restored normal POLG1 levels |  |  |  |  |  |  |  |  |  |  |  |  |  | 
2 | O=C(O)c1ccc(/C2=C3\C=CC(=N3)/C(c3ccc(C(=O)O)cc3)=c3/cc/c4[n]3[Mn]([Cl])[n]3c2ccc3/C(c2ccc(C(=O)O)cc2)=C2/C=CC(=N2)\C=4c2ccc(C(=O)O)cc2)cc1 [MnTBAP, Manganese (III) tetrakis (4-benzoic acid) porphyrin chloride] |  |  |  |  |  | did not show effect on cell survival | decreased by two thirds | greatly reduced | dramatically higher | reduce by one half | restored control levels of HTRA3 | did reduce | increased the levels of HTRA3 | increased levels of POLG1 | does not change the mtDNA content | becomes close to the value of controls | attenuated | remain relatively high | 
3 | B1 | POLG1 levels exceeded those of untreated healthy individuals | Significant modifications in two CS type I fibroblasts (539 and 548) were not observed |  | increased levels of POLG1 immunofluorescence | restored normal POLG1 levels |  |  |  |  |  |  |  |  |  |  |  |  |  | did not show effect on cell survival
